Target: T1, recombinant human glucocerebrosidase produced in baculovirus/SF9 system, enzyme in the culture media (Homo sapiens, UniProt P04062)
T1 construct: made in house; host or cells: Spodoptera frugiperda SF9 cells infected with recombinant baculovirus (AcNPV, pAc373/GC)
T1 sequence (P04062 40-536): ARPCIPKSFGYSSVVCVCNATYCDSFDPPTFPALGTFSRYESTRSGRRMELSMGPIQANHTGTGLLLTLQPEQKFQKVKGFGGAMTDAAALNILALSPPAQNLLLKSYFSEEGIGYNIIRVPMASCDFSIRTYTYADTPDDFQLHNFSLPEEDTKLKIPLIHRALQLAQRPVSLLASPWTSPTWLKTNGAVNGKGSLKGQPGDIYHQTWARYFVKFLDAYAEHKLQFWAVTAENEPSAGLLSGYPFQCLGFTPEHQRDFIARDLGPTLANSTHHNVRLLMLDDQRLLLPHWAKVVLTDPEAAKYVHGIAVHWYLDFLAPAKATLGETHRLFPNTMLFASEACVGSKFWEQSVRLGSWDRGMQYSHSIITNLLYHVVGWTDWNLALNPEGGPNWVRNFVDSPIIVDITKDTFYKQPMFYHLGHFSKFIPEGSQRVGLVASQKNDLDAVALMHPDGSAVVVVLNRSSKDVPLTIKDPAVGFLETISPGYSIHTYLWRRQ
Test: Km determination, β-glucosidase activity with 4MUGP
Type: biochemical
Conditions: pH 5.9, 100 mM potassium phosphate, 0.15% Triton X-100, 0.125% sodium taurocholate
Description: Glucocerebrosidase assays: For pH profile and inhibition studies, glucocerebrosidase activity was measured using 100 mM potassium phosphate buffer containing 0.15% Triton X-100, 2.5 μl of β-D-[1-^14 C] glucocerebroside (7.5 mg/ml in sodium taurocholate at 50 mg/ml), and the sample in the total volume of 200 ul. Preincubations with conduritol-B-epoxide were for 30 min at 37° C. […] Purification of recombinant glucocerebrosidase was also monitored using 4MUGP.

Cc1cc(=O)oc2cc(O[C@@H]3O[C@H](CO)[C@@H](O)[C@H](O)[C@H]3O)ccc12 [4MUGP, 4-methylumbellifery-β-D-glucopyranoside]
Km: 3.3 mM

From patent US6074864A, “Cloned DNA for synthesizing unique glucocerebrosidase” (The United States of America as represented by the …, priority 1994, dated 2000)
